Assay results: patent US20180235993A1 (priority 2000, published 2018)
Where two headings read alike, the source gives them in different places.

Columns and labels:
[1] = Bioavailability assay in Cynomolgus monkeys; assay type: in vivo, Cynomolgus monkey; conditions: for Mean Norm AUC: mean of 3 monkeys
Protocol: Within 1 week prior to the study initiation, the cynomolgus monkey was surgically implanted with a chronic venous catheter and subcutaneous venous access port (VAP) to facilitate blood collection and underwent a physical examination including hematology and serum chemistry evaluations and the body weight was recorded. Each monkey (six total), received approximately 250 uCi of ^3H activity with each dose of active compound, namely β-D-2′-CH3-riboG at a dose level of 10 mg/kg at a dose concentration of 5 mg/mL, either via an intravenous bolus (3 monkeys, IV), or via oral gavage (3 monkeys, PO). Each dosing syringe was weighed before dosing to gravimetrically determine the quantity of formulation administered. Urine samples were collected via pan catch at the designated intervals (approximately 18-0 hours pre-dose, 0-4, 4-8 and 8-12 hours post-dosage) and processed. Blood samples were collected as well (pre-dose, 0.25, 0.5, 1, 2, 3, 6, 8, 12 and 24 hours post-dosage) via the chronic venous catheter and VAP or from a peripheral vessel if the chronic venous catheter procedure should not be possible. The blood and urine samples were analyzed for the maximum concentration (Cmax), time when the maximum concentration was achieved (Tmax), area under the curve (AUC), half life of the dosage concentration (T1/2), clearance (CL), steady state volume and distribution (Vss) and bioavailability (F), which are tabulated in Tables 2 and 3, and graphically illustrated in FIGS. 2 and 3, respectively.

[2] = test system: Human bone marrow cells (CFU-GM); test: Human bone marrow toxicity, CFU-GM clonogenic assay; assay type: cell-based; conditions: Homo sapiens, CFU-GM, read-out: IC50 CFU-GM
Source text: (§1) Human bone marrow cells were collected from normal healthy volunteers and the mononuclear population was separated by Ficoll-Hypaque gradient centrifugation as described previously by Sommadossi J-P, Carlisle R. “Toxicity of 3′-azido-3′-deoxythymidine and 9-(1,3-dihydroxy-2-propoxymethyl)guanine for normal human hematopoietic progenitor cells in vitro” Antimicrobial Agents and Chemotherapy 1987; 31:452-454; and Sommadossi J-P, Schinazi R F, Chu C K, Xie M-Y. “Comparison of cytotoxicity of the (−)- and (+)-enantiomer of 2′,3′-dideoxy-3′-thiacytidine in normal human bone marrow progenitor cells” Biochemical Pharmacology 1992; 44:1921-1925. The culture assays for CFU-GM and BFU-E were performed using a bilayer soft agar or methylcellulose method. Drugs were diluted in tissue culture medium and filtered. After 14 to 18 days at 37° C. in a humidified atmosphere of 5% CO2 in air, colonies of greater than 50 cells were counted using an inverted microscope. The results in Table 4 are presented as the percent inhibition of colony formation in the presence of drug compared to solvent control cultures.

[3] = test system: Human bone marrow cells (BFU-E); test: Human bone marrow toxicity, BFU-E clonogenic assay; assay type: cell-based; conditions: Bone marrow cell; human bone marrow colony formation, 14 to 18 days
Source text: as §1

BVDV (strain NADL) = test: Cell Protection Assay (CPA); assay type: cell-based, Bovine Viral Diarrhea virus; conditions: Bovine viral diarrhea virus isolates and strains
Protocol: The assay was performed essentially as described by Baginski, S. G.; Pevear, D. C.; Seipel, M.; Sun, S. C. C.; Benetatos, C. A.; Chunduru, S. K.; Rice, C. M. and M. S. Collett “Mechanism of action of a pestivirus antiviral compound” PNAS USA 2000, 97(14), 7981-7986. MDBK cells (ATCC) were seeded onto 96-well culture plates (4,000 cells per well) 24 hours before use. After infection with BVDV (strain NADL, ATCC) at a multiplicity of infection (MOI) of 0.02 plaque forming units (PFU) per cell, serial dilutions of test compounds were added to both infected and uninfected cells in a final concentration of 0.5% DMSO in growth medium. Each dilution was tested in quadruplicate. Cell densities and virus inocula were adjusted to ensure continuous cell growth throughout the experiment and to achieve more than 90% virus-induced cell destruction in the untreated controls after four days post-infection. After four days, plates were fixed with 50% TCA and stained with sulforhodamine B. The optical density of the wells was read in a microplate reader at 550 nm. The 50% effective concentration (EC50) values were defined as the compound concentration that achieved 50% reduction of cytopathic effect of the virus. FIGS. 4 and 5 provide a graphical illustration of the methodology used to arrive at the 50% effective concentration (EC50) values for β-D-2′-CH3-riboG and ribavirin. FIG. 6 compares the results of the CPA for β-D-2′-CH3-riboG, β-D-2′-CH3-riboC, riboU, β-D-2′-CH3-riboA and ribavirin

BVDV = test: Plaque Reduction Assay; assay type: cell-based, Bovine Viral Diarrhea virus; conditions: Bovine viral diarrhea virus isolates and strains
Protocol: For each compound the effective concentration was determined in duplicate 24-well plates by plaque reduction assays. Cell monolayers were infected with 100 PFU/well of virus. Then, serial dilutions of test compounds in MEM supplemented with 2% inactivated serum and 0.75% of methyl cellulose were added to the monolayers. Cultures were further incubated at 37° C. for 3 days, then fixed with 50% ethanol and 0.8% Crystal Violet, washed and air-dried. FIG. 7 is a graphical illustration of the results from the Plaque Reduction Assay. FIG. 8 is an image of BVDV plaque formation in the presence of increasing concentrations of β-D-2′-CH3-riboU.

[4] = test system: Bovine Viral Diarrhea virus (BVDV); test: microbe, parasite or virus in culture; assay type: cell-based; conditions: Bovine viral diarrhea virus isolates and strains, read-out: BVDV EC50
in vitro [5] = conditions: cattle
in vitro [6] = test: in vitro
[7] = cynomolgus monkey, blood, Cynomolgus monkeys, IV 10 mg/kg
[8] = cynomolgus monkey, blood, Cynomolgus monkeys, PO 10 mg/kg

**Q.** With `CC1(O)[C@@H](O)[C@@H](CO)O[C@H]1n1cnc2c(=O)[nH]c(N)nc21` (stereo partly drawn) [β-D-2′-CH3-riboG] as the molecule, how does the “Norm AUC” value ([1]; IV Monkey 1) read?
**A.** Its value is 293.2 ng·h/mL/mg.

**Q.** And the “Norm AUC” value ([1]; IV Monkey 2)?
**A.** Its value is 268.3 ng·h/mL/mg.

**Q.** What about the “Norm AUC” value ([1]; IV Monkey 3) of the same molecule?
**A.** The value was 293.4 ng·h/mL/mg.

**Q.** What about the “Mean Norm AUC” value ([1]; IV) of the same molecule?
**A.** The value was 284.9 ng·h/mL/mg.

**Q.** And the “Norm AUC” value ([1]; PO Monkey 1)?
**A.** The value was 26.1 ng·h/mL/mg.

**Q.** And the “Norm AUC” value ([1]; PO Monkey 2)?
**A.** Its value is 29.0 ng·h/mL/mg.

**Q.** What about the “Norm AUC” value ([1]; PO Monkey 3) of the same molecule?
**A.** The value was 61.3 ng·h/mL/mg.

**Q.** What about the “Mean Norm AUC” value ([1]; PO) of the same molecule?
**A.** Its value is 38.8 ng·h/mL/mg.

**Q.** What about the F ([1]; Table 3, Cynomolgus monkeys, 10 mg/kg) of the same molecule?
**A.** Its F is 13.8%.

**Q.** And the bioavailability ([1]; cynomolgus monkey, blood, 10 mg/kg, Table 2, monkeys, PO vs IV, read-out: F (oral bioavailability))?
**A.** The bioavailability was 13.6%.

**Q.** What about the AUC ([1]; cynomolgus monkey, blood, iv, 10 mg/kg, Cynomolgus monkeys, IV 10 mg/kg) of the same molecule?
**A.** The AUC was 8760 ± 4210 ng·h/mL.

**Q.** What about the AUC ([1]; cynomolgus monkey, blood, iv, 10 mg/kg, IV Monkey 1, dose 46.44 mg (10 mg/kg)) of the same molecule?
**A.** The AUC was 13600 ng·h/mL.

**Q.** What about the AUC ([1]; cynomolgus monkey, blood, iv, 10 mg/kg, IV Monkey 2, dose 24.53 mg (10 mg/kg)) of the same molecule?
**A.** Its AUC is 6580 ng·h/mL.

**Q.** And the AUC ([1]; cynomolgus monkey, blood, iv, 10 mg/kg, IV Monkey 3, dose 20.72 mg (10 mg/kg))?
**A.** Its AUC is 6080 ng·h/mL.

**Q.** What about the AUC ([1]; cynomolgus monkey, blood, po, 10 mg/kg, Cynomolgus monkeys, PO 10 mg/kg) of the same molecule?
**A.** Its AUC is 1170 ± 590 ng·h/mL.

**Q.** And the AUC ([1]; cynomolgus monkey, blood, po, 10 mg/kg, PO Monkey 1, dose 29.04 mg (10 mg/kg))?
**A.** Its AUC is 758 ng·h/mL.

**Q.** What about the AUC ([1]; cynomolgus monkey, blood, po, 10 mg/kg, PO Monkey 2, dose 30.93 mg (10 mg/kg)) of the same molecule?
**A.** Its AUC is 898 ng·h/mL.

**Q.** And the AUC ([1]; cynomolgus monkey, blood, po, 10 mg/kg, PO Monkey 3, dose 30.04 mg (10 mg/kg))?
**A.** The AUC was 1840 ng·h/mL.

**Q.** And the Cmax [1, 7]?
**A.** The Cmax was 6950 ± 1890 ng/mL.

**Q.** What about the Tmax [1, 7] of the same molecule?
**A.** The Tmax was 0.25 h.

**Q.** What about the clearance [1, 7] of the same molecule?
**A.** Its clearance is 21.3 mL/min/kg.

**Q.** And the half-life [1, 7]?
**A.** Its half-life is 7.9 ± 5.4 h.

**Q.** And the Vd ([1]; cynomolgus monkey, blood, Cynomolgus monkeys, IV 10 mg/kg, read-out: Vss)?
**A.** The Vd was 2.09 ± 0.54 L/kg.

**Q.** What about the Cmax [1, 8] of the same molecule?
**A.** The Cmax was 218 ± 132 ng/mL.

**Q.** What about the Tmax [1, 8] of the same molecule?
**A.** The Tmax was 2 ± 1 h.

**Q.** And the half-life [1, 8]?
**A.** Its half-life is 10.3 ± 4.1 h.

**Q.** What about the IC50 [2] of the same molecule?
**A.** Its IC50 is greater than 10 µM.

**Q.** And the IC50 [3]?
**A.** Its IC50 is greater than 100 µM.

**Q.** What about the EC50 (BVDV (strain NADL); 96 h, MDBK cells infected with BVDV, 50% reduction of cytopathic effect, four days, read-out: EC50) of the same molecule?
**A.** Its EC50 is 4 µM.

**Q.** What about the EC50 (BVDV (strain NADL); Table 13, BVDV, read-out: Cell Protection (EC50)) of the same molecule?
**A.** The EC50 was 4 µM.

**Q.** And the EC90 (BVDV; 72 h, concentration to obtain 90% virus suppression, 3 days, read-out: EC90)?
**A.** The EC90 was less than 9 µM.

**Q.** And the EC90 (BVDV; Table 13, BVDV, 90% virus suppression, read-out: Plaque Reduction (EC90))?
**A.** The EC90 was less than 9 µM.

**Q.** What about the EC50 [4] of the same molecule?
**A.** The EC50 was 2 µM.

**Q.** What about the CC50 (in vitro [5]) of the same molecule?
**A.** Its CC50 is 100 µM.

**Q.** What about the CC50 (in vitro [6]; cattle (Bos taurus)) of the same molecule?
**A.** The CC50 was greater than 100 µM.

**Q.** What about the CC50 at 4 days (in vitro [6]; hamster) of the same molecule?
**A.** Its CC50 at 4 days is 20 µM.
